Measurements reported in patent US10604509B2, “Nrf2 regulators” (GlaxoSmithKline Intellectual Property Development Limited, priority 2015, dated 2020).
Counter-ions that a name gives are not always drawn. Like-named read-outs stand apart in the source and are kept apart here.

Test system: NQO1 specific enzyme activity in BEAS-2B cells
Test: BEAS-2B NQO1 MTT assay
Assay type: cell-based
Settings: BEAS-2B cells, 48 hours with compound, MTT readout, read-out: EC50 of NQO1 specific activity induction
Description: NAD(P)H:quinone oxidoreductase 1 (NQO1), also called DT diaphorase, is a homodimeric FAD-containing enzyme that catalyzes obligatory NAD(P)H-dependent two-electron reductions of quinones and protects cells against the toxic and neoplastic effects of free radicals and reactive oxygen species arising from one-electron reductions. The transcription of NQO1 is finely regulated by NRF2, and thus NQO1 activity is a good marker for NRF2 activation. On day one, frozen BEAS-2B cells (ATCC) are thawed in a water bath, counted, and re-suspended at a concentration of 250,000 cells/mL. Fifty microliters of cells are plated in 384 well black clear-bottomed plates. Plates are incubated at 37° C., 5% CO2 overnight. On day two, plates are centrifuged and 50 nL of compound or controls are added to the cells. Plates are then incubated at 37° C., 5% CO2 for 48 hours. On day four, medium is aspirated from the plate and crude cell lysates are made by adding 13 uL of 1× Cell Signaling Technologies lysis buffer with 1 Complete, Mini, EDTA-free Protease Inhibitor Tablet (Roche) for each 10 mL of lysis buffer. After lysis plates are incubated for 20 minutes at room temperature. Two microliters of lysate are removed for use in Cell Titer Glo assay (Promega) and MTT cocktail is prepared (Prochaska et. al. 1998) for measurement of NQO1 activity. Fifty microliters of MTT cocktail is added to each well, plate is centrifuged, and analyzed on an Envision plate reader (Perkin Elmer) using Absorbance 570 nm label for 30 minutes. Product formation is measured kinetically and the EC50 of NQO1 specific activity induction is calculated by plotting the change in absorbance (Delta OD/min) versus the log of compound concentration followed by 3-parameter fitting.

## Cc1ccc(C(CC(=O)O)c2ccc3c(nnn3C)c2C)cc1CN1CCCC(S(=O)(=O)C2CCCCC2)C1 (stereo not drawn) [compound 186, 3-(3-((3-(Cyclohexylsulfonyl)piperidin-1-yl)methyl)-4-methylphenyl)-3-(1,4-dimethyl-1H-benzo[d][1,2,3]triazol-5-yl)propanoic acid]
Homo sapiens, BEAS-2B, 48 h
  EC50: 100 to 1000 nM

## CCCn1cc(CCC(CC(=O)O)c2ccc(C)c(CN3CCCC(n4cccn4)C3)c2)nn1 (stereo not drawn) [Example 163, 3-(3-((3-(1H-pyrazol-1-yl)piperidin-1-yl)methyl)-4-methylphenyl)-5-(1-propyl-1H-1,2,3-triazol-4-yl)pentanoic Acid, Formic Acid Salt]
Homo sapiens, BEAS-2B, 48 h
  EC50: 1000 to 10000 nM

## Cc1ccc([C@@H](c2ccc3c(nnn3C)c2C)C(C)(C)C(=O)O)cc1CN1CCC[C@H](n2cccn2)C1 [Example 183, (S)-3-(3-(((S)-3-(1H-Pyrazol-1-yl)piperidin-1-yl)methyl)-4-methylphenyl)-3-(1,4-dimethyl-1H-benzo[d][1,2,3]triazol-5-yl)-2,2-dimethylpropanoic Acid]
Homo sapiens, BEAS-2B, 48 h
  EC50: 10 to 100 nM

## CCn1nnc2c(C)c([C@H](c3ccc(C)c(CN4Cc5cnccc5OC(C)(C)C4)c3)[C@@H](C)C(=O)O)ccc21 [Example 196, (2R,3S)-3-(3-((2,2-Dimethyl-2,3-dihydropyrido[3,4-f][1,4]oxazepin-4(5H)-yl)methyl)-4-methylphenyl)-3-(1-ethyl-4-methyl-1H-benzo[d][1,2,3]triazol-5-yl)-2-methylpropanoic acid, Trifluoroacetic acid salt]
Homo sapiens, BEAS-2B, 48 h
  EC50: 1 to 10 nM

## CCC1c2cccn2CCN1Cc1cc(C(CC(=O)O)c2ccc3c(nnn3C)c2C)ccc1C (stereo not drawn) [Example 19, 3-(1,4-dimethyl-1H-benzo[d][1,2,3]triazol-5-yl)-3-(3-((1-ethyl-3,4-dihdyropyrrolo[1,2-a]pyrazin-2(1H)-yl)methyl)-4-methylphenyl)propanoic acid, formic acid salt]
Homo sapiens, BEAS-2B, 48 h
  EC50: 1000 to 10000 nM

## CC[C@@H]1CN(Cc2cc([C@@H](c3ccc4c(nnn4CC)c3F)[C@@H](C)C(=O)O)ccc2C)Cc2cccc(F)c2O1 [Example 192, (2R,3S)-3-(1-Ethyl-4-fluoro-1H-benzo[d][1,2,3]triazol-5-yl)-3-(3-(((R)-2-ethyl-9-fluoro-2,3-dihydrobenzo[f][1,4]oxazepin-4(5H)-yl)methyl)-4-methylphenyl)-2-methylpropanoic acid]
Homo sapiens, BEAS-2B, 48 h
  EC50: 1 to 10 nM

## Cc1ccc(C(CC(=O)O)c2ccc3c(nnn3C)c2C)cc1Cn1ccnc1CC1CCOCC1 (stereo not drawn) [Example 129, 3-(1,4-Dimethyl-1H-Benzo[d][1,2,3]triazol-5-yl)-3-(4-methyl-3-((2-((tetrahydro-2H-pyran-4-yl)methyl)-1H-imidazol-1-yl)methyl)phenyl)propanoic Acid]
Homo sapiens, BEAS-2B, 48 h
  EC50: 100 to 1000 nM

## CC[C@@H]1CN(Cc2cc([C@@H](c3ccc4c(nnn4CC)c3F)[C@@H](C)C(=O)O)ccc2C)Cc2ncccc2O1 [Example 191, (2R,3S)-3-(3-(((R)-2-Ethyl-2,3-dihydropyrido[2,3-f][1,4]oxazepin-4(5H)-yl)methyl)-4-methylphenyl)-3-(1-ethyl-4-fluoro-1H-benzo[d][1,2,3]triazol-5-yl)-2-methylpropanoic acid]
Homo sapiens, BEAS-2B, 48 h
  EC50: 1 to 10 nM

## CC[C@@H]1CN(Cc2cc(C(c3ccc4c(nnn4C)c3C)C(C)(C)C(=O)O)ccc2C)Cc2cccnc2O1 (stereo partly drawn) [Example 113, 3-(1,4-Dimethyl-1H-benzo[d][1,2,3]triazol-5-yl)-3-(3-(((R)-2-ethyl-2,3-dihydropyrido[3,2-f][1,4]oxazepin-4(5H)-yl)methyl)-4-methylphenyl)-2,2-dimethylpropanoic Acid]
Homo sapiens, BEAS-2B, 48 h
  EC50: 100 to 1000 nM

## Cc1ccc(C(c2ccc3c(nnn3C)c2C)C(C)(C)C(=O)O)cc1Cn1ccnc1CN1CCCC1 (stereo not drawn) [Example 124, 3-(1,4-Dimethyl-1H-benzo[d][1,2,3]triazol-5-yl)-2,2-dimethyl-3-(4-methyl-3-((2-(pyrrolidin-1-ylmethyl)-1H-imidazol-1-yl)methyl)phenyl)propanoate, Sodium salt]
Homo sapiens, BEAS-2B, 48 h
  EC50: 10 to 100 nM

## CC[C@@H]1CN(Cc2cc(C(c3ccc(F)cc3C)C(C)(C)C(=O)O)ccc2C)Cc2ccccc2O1 (stereo partly drawn) [Example 115, 3-(3-(((R)-2-ethyl-2,3-dihydrobenzo[f][1,4]oxazepin-4(5H)-yl)methyl)-4-methylphenyl)-3-(4-fluoro-2-methylphenyl)-2,2-dimethylpropanoic Acid, Formic Acid Salt]
Homo sapiens, BEAS-2B, 48 h
  EC50: 1000 to 10000 nM

## CC[C@@H]1CN(Cc2cc([C@@H](CC(=O)O)c3ccc4c(nnn4CC)c3Cl)ccc2C)Cc2ccccc2O1 [Example 67, (R)-3-(4-Chloro-1-ethyl-1H-benzo[d][1,2,3]triazol-5-yl)-3-(3-(((R)-2-ethyl-2,3-dihydrobenzo[f][1,4]oxazepin-4(5H)-yl)methyl)-4-methylphenyl)propanoate, Sodium Salt]
Homo sapiens, BEAS-2B, 48 h
  EC50: 10 to 100 nM

## Cc1ccc(C(CC(=O)O)c2ccc3c(nnn3C)c2C)cc1CN1CCc2cnc(C(C)C)nc2C1 (stereo not drawn) [Example 11, Ammonium 3-(1,4-dimethyl-1H-benzo[d][1,2,3]triazol-5-yl)-3-(3-((2-isopropyl-5,6-dihydropyrido[3,4-d]pyrimidin-7(8H)-yl)methyl)-4-methylphenyl)propanoate]
Homo sapiens, BEAS-2B, 48 h
  EC50: 1000 to 10000 nM

## Cc1ccc(C(c2ccc3c(nnn3C)c2C)C(C)(C)C(=O)O)cc1Cn1ccnc1CN1CCC(C)CC1 (stereo not drawn) [Example 139, 3-(1,4-Dimethyl-1H-benzo[d][1,2,3]triazol-5-yl)-2,2-dimethyl-3-(4-methyl-3-((2-((4-methylpiperidin-1-yl)methyl)-1H-imidazol-1-yl)methyl)phenyl) propanoic acid]
Homo sapiens, BEAS-2B, 48 h
  EC50: 1000 to 10000 nM

## Cc1ccc([C@H](CC(=O)O)c2ccc3c(nnn3C)c2C)cc1CN1Cc2ccncc2OC(C)(C)C1 [Example 264, (S)-3-(1,4-dimethyl-1H-benzo[d][1,2,3]triazol-5-yl)-3-(3-((2,2-dimethyl-2,3-dihydropyrido[4,3-f][1,4]oxazepin-4(5H)-yl)methyl)-4-methylphenyl)propanoic acid]
Homo sapiens, BEAS-2B, 48 h
  EC50: 1000 to 10000 nM

## CCC1CN(Cc2cc(C(CC(=O)O)c3ccc4c(nnn4CC)c3C)ccc2C)Cc2ccccc2O1 (stereo not drawn) [Example 69, 3-(3-((2-Ethyl-2,3-dihydrobenzo[f][1,4]oxazepin-4(5H)-yl)methyl)-4-methylphenyl)-3-(1-ethyl-4-methyl-1H-benzo[d][1,2,3]triazol-5-yl)propanoic Acid, Formic Acid Salt]
Homo sapiens, BEAS-2B, 48 h
  EC50: 10 to 100 nM

## Cc1ccc([C@@H](CC(=O)O)c2ccc3c(nnn3C)c2C)cc1CN1CCCC(n2cccn2)C1 (single isomer, unassigned; isomer 1) [Example 157]
  EC50: 100 to 1000 nM

## CCn1nnc2c(C)c([C@H](c3ccc(C)c(CN4Cc5ccccc5OC(C)(C)C4)c3)C(C)(C)C(=O)O)ccc21 (single isomer, unassigned; enantiomer b) [Example 207]
Homo sapiens, BEAS-2B, 48 h
  EC50: 10 to 100 nM

## Cc1ccc(C(CC(=O)O)c2ccc3c(nnn3C)c2C)cc1CN1Cc2ccccc2OC2(CC2)C1 (stereo not drawn) [Example 243, 3-(3-((3H-Spiro[benzo[f][1,4]oxazepine-2,1′-cyclopropan]-4(5H)-yl)methyl)-4-methylphenyl)-3-(1,4-dimethyl-1H-benzo[d][1,2,3]triazol-5-yl)propanoic Acid]
Homo sapiens, BEAS-2B, 48 h
  EC50: 100 to 1000 nM

## Cc1ccc([C@H](CC(=O)O)c2ccc3c(nnn3C)c2C)cc1CN1Cc2ccc(F)cc2OC(C)(C)C1 [Example 63, (S)-3-(1,4-Dimethyl-1H-benzo[d][1,2,3]triazol-5-yl)-3-(3-((8-fluoro-2,2-dimethyl-2,3-dihydrobenzo[f][1,4]oxazepin-4(5H)-yl)methyl)-4-methylphenyl)propanoic acid]
Homo sapiens, BEAS-2B, 48 h
  EC50: 10 to 100 nM

## CC[C@@H]1CN(Cc2cc(C(CC(=O)O)c3ccc4c(nnn4C)c3C)ccc2C)Cc2ccncc2O1 (stereo partly drawn) [Example 90, 3-(1,4-Dimethyl-1H-benzo[d][1,2,3]triazol-5-yl)-3-(3-(((R)-2-ethyl-2,3-dihydropyrido[4,3-f][1,4]oxazepin-4(5H)-yl)methyl)-4-methylphenyl)propanoic acid]
Homo sapiens, BEAS-2B, 48 h
  EC50: 10 to 100 nM

## Cc1ccc2c(c1)CN(Cc1cc([C@@H](CC(=O)O)c3ccc4c(nnn4C)c3C)ccc1C)CC(C)(C)O2 [Example 175, (R)-3-(1,4-Dimethyl-1H-benzo[d][1,2,3]triazol-5-yl)-3-(4-methyl-3-((2,2,7-trimethyl-2,3-dihydrobenzo[f][1,4]oxazepin-4(5H)-yl)methyl)phenyl)propanoic Acid]
Homo sapiens, BEAS-2B, 48 h
  EC50: 10 to 100 nM

## CCC1CN(Cc2cc(C(CC(=O)O)c3ccc4c(nnn4C)c3C)ccc2C)Cc2ccc(Br)cc2O1 (stereo not drawn) [Example 82, 3-(3-((8-Bromo-2-ethyl-2,3-dihydrobenzo[f][1,4]oxazepin-4(5H)-yl)methyl)-4-methylphenyl)-3-(1,4-dimethyl-1H-benzo[d]-[1,2,3]triazol-5-yl)propanoic acid]
Homo sapiens, BEAS-2B, 48 h
  EC50: 10 to 100 nM

## CCC1CCN(Cc2nccn2Cc2cc([C@H](c3ccc4c(nnn4C)c3C)C(C)C(=O)O)ccc2C)CC1 (stereo partly drawn) [Example 152, (3R)-3-(1,4-Dimethyl-1H-benzo[d][1,2,3]triazol-5-yl)-3-(3-((2-((4-ethylpiperidin-1-yl)methyl)-1H-imidazol-1-yl)methyl)-4-methylphenyl)-2-methylpropanoic Acid, Trifluoroacetic Acid Salt]
Homo sapiens, BEAS-2B, 48 h
  EC50: 100 to 1000 nM
